# Data from patent US6867320B2, “Substituted phenylalkanoic acid derivatives and use thereof” (Asahi Kasei Pharma Corporation, priority 2002, dated 2005).
# What was measured:
# [1] = tested on: PGE2 production from IL-1β-stimulated MG-63 cells; experiment: Suppressing action on PGE2 production from IL-1β-stimulated MG-63 cells; assay type: cell-based; details: Homo sapiens, IL-1β 1 ng/ml, 18 hours, read-out: PGE2 production suppression ratio
# Method in brief: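 PGE2 in 18 h supernatants was quantified by EIA and expressed as % suppression relative to IL-1β-only and unstimulated controls. Cells were the MG-63 osteosarcoma line, plated at 2×10^4/well, given compound in 0.5% FBS EMEM, then 1 ng/ml IL-1β final.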
# [2] = tested on: PGD2 production from IgE-stimulated RBL-2H3 cells; experiment: Suppressing action on PGD2 production from IgE-stimulated RBL-2H3 cells; assay type: cell-based; details: Rattus norvegicus, 10 min, IgE/DNP-BSA stimulated RBL-2H3 cells, read-out: PGD2 production suppression ratio
# Method in brief: (§1)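 Rat RBL-2H3 mastocytoma cells, sensitized 30 min with anti-DNP-BSA IgE, then given test compound in 0.5% FBS medium and stimulated with DNP-BSA (100 ng/ml final). Supernatant PGD2 and LTB4 were measured by EIA after 10 min. Suppression ratio is calculated against unstimulated and stimulant-only controls.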
# [3] = tested on: LTB4 production from IgE-stimulated RBL-2H3 cells; experiment: Suppressing action on LTB4 production from IgE-stimulated RBL-2H3 cells; assay type: cell-based; details: Rattus norvegicus, 10 min, IgE/DNP-BSA stimulated RBL-2H3 cells, read-out: LTB4 production suppression ratio
# Method in brief: as §1
# [4] = tested on: zymosan-stimulated footpad edema; experiment: Mouse zymosan-stimulated footpad edema reaction; assay type: in vivo; details: ICR female mice, oral 0.1 to 500 mg/kg, compared with positive control group
# Method in brief: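 Female ICR mice (6–7 weeks, n=8) dosed orally at 0.1 to 500 mg/kg in 0.5% methylcellulose; 1 h later zymosan (1 mg/ml, 0.02 ml) injected s.c. into right hind footpad. Edema volume at 1 and 2 h gave AUC to 2 h; suppression (%) calculated against positive control AUC.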
# [5] = tested on: IgE-stimulated footpad edema; experiment: Mouse IgE-stimulated footpad edema reaction; assay type: in vivo; details: C57BL/6 male mice, oral 0.1 to 500 mg/kg, compared with positive control group
# Procedure: 4. Suppressing Effect on Mouse IgE-stimulated Footpad Edema Reaction
# Suppression on footpad edema caused by IgE antibody as an allergic stimulant was studied by the following method. Groups of C57BL/6 male mice (9- to 11-week old) each consisting of five mice were used for the test. Anti-DNP-BSA IgE serum was subcutaneously administered in a volume of 20 μl to right hind leg footpad of each mouse one day before the test. A test compound was suspended or dissolved in purified water containing 0.5% methylcellulose and orally administered to the test animals at 0.1 to 500 mg/0.2 ml/kg. To the control group, purified water containing 0.5% methylcellulose was administered in a similar manner, which was not added with the test compound. Two hours after the administration of the test compound, 0.2 ml of a solution of DNP-BSA dissolved in physiological saline (Otsuka Pharmaceutical) at 2.5 μg/ml was intravenously administered. The thickness of right hind leg footpad was measured by using a digital thickness gauge (MITSUTOYO) 10, 15, 20, and 30 minutes after the administration of DNP-BSA. A difference of the thickness of footpad measured above and the thickness before the administration of the test compound measured beforehand was regarded as a thickness of edema.
# For the thickness of the edema at 10, 15, 20 and 30 minutes after the DNP-BSA administration, a graph was prepared indicating time in abscissa and the edema thickness in ordinate, and edema thickness AUC […] was obtained by calculation according to the following equation. Edema thickness AUC (mm·minute)=1/2×10×A+5×(A+B)/2+5×(B+C)/2+10×(C+D)/2 • A: Edema thickness 10 minutes after DNP-BSA administration • B: Edema thickness 15 minutes after DNP-BSA administration • C: Edema thickness 20 minutes after DNP-BSA administration • D: Edema thickness 30 minutes after DNP-BSA administration
# A suppressing ratio on edema of a test compound was obtained by calculation in accordance with the following equation. Edema suppression ratio (%)=[1−B/A]×100 • A: Edema thickness AUC of positive control • B: Edema thickness AUC of test compound administered group (2) Measurement Results
Structure (SMILES),inhibition at 0.4 µM [1] [%],inhibition at 0.4 µM [2] [%],inhibition at 0.4 µM [3] [%],suppression of footpad edema caused by zymosan [4],suppression of footpad edema caused by IgE stimulation [5]
"Nc1ccc2cc(-c3cc(CCC(=O)O)ccc3OCC3CCCC3)ccc2c1 [Compound 012, 3-[3-(6-aminonaphthalen-2-yl)-4-cyclopentylmethyloxyphenyl]propionic acid]",≥ 50,≥ 50,≥ 50,suppressed footpad edema,suppressed the footpad edema
"O=C(O)CCc1ccc(OCC2CCCC2)c(-c2ccc3ccccc3c2)c1 [Compound 039, 3-[4-cyclopentylmethyloxy-3-(naphthalen-2-yl)phenyl]propionic acid]",≥ 50,≥ 50,≥ 50,suppressed footpad edema,suppressed the footpad edema
"O=C(O)CCc1ccc(OC2CCCC2)c(-c2ccc3ccccc3c2)c1 [Compound 043, 3-[4-cyclopentyloxy-3-(naphthalen-2-yl)phenyl]propionic acid]",≥ 50,≥ 50,≥ 50,suppressed footpad edema,suppressed the footpad edema
"O=C(O)CCc1ccc(OCCC2CCCC2)c(-c2ccc3ccccc3c2)c1 [Compound 047, 3-[4-(2-cyclopentylethyloxy)-3-(naphthalen-2-yl)phenyl]propionic acid]",≥ 50,≥ 50,≥ 50,suppressed footpad edema,suppressed the footpad edema
"O=C(O)CCc1ccc(OCCc2ccccc2F)c(-c2ccc3ccccc3c2)c1 [Compound 053, 3-{4-[2-(2-fluorophenyl)ethyloxy]-3-(naphthalen-2-yl)phenyl}propionic acid]",≥ 50,≥ 50,≥ 50,suppressed footpad edema,suppressed the footpad edema
"O=C(O)CCc1ccc(OCC2CCCC2)c(-c2ccc3[nH]ccc3c2)c1 [Compound 100, 3-[4-cyclopentylmethyloxy-3-(1H-indol-5-yl)phenyl]propionic acid]",≥ 50,≥ 50,≥ 50,suppressed footpad edema,suppressed the footpad edema
"Cn1ccc2cc(-c3cc(CCC(=O)O)ccc3OC3CCCC3)ccc21 [Compound 108, 3-[4-cyclopentyloxy-3-(1-methyl-1H-indol-5-yl)phenyl]propionic acid]",≥ 50,≥ 50,≥ 50,suppressed footpad edema,suppressed the footpad edema
"CC(Oc1ccc(CCC(=O)O)cc1-c1ccc2[nH]ccc2c1)c1ccccc1 (stereo not drawn) [Compound 132, 3-[3-(1H-indol-5-yl)-4-(1-phenylethyloxy)phenyl]propionic acid]",≥ 50,≥ 50,≥ 50,suppressed footpad edema,suppressed the footpad edema
"O=C(O)CCc1ccc(OCc2ccc(F)cc2)c(-c2ccc3[nH]ccc3c2)c1 [Compound 146, 3-[4-(4-fluorophenylmethyloxy)-3-(1H-indol-5-yl)phenyl]propionic acid]",≥ 50,≥ 50,≥ 50,suppressed footpad edema,suppressed the footpad edema
"O=C(O)CCc1ccc(OCC2CC3CCC2C3)c(-c2ccc3[nH]ccc3c2)c1 (stereo not drawn) [Compound 177, 3-[4-(bicyclo[2,2,1]hept-2-ylmethyloxy)-3-(1H-indol-5-yl)phenyl]propionic acid]",≥ 50,≥ 50,≥ 50,suppressed footpad edema,suppressed the footpad edema
"CC(C)C(C)COc1ccc(CCC(=O)O)cc1-c1ccc2[nH]ccc2c1 (stereo not drawn) [Compound 181, 3-[4-(2,3-dimethylbutyloxy)-3-(1H-indol-5-yl)phenyl]propionic acid]",≥ 50,≥ 50,≥ 50,suppressed footpad edema,suppressed the footpad edema
"CCCCOc1ccc(COc2ccc(CCC(=O)O)cc2-c2ccc3[nH]ccc3c2)cc1 [Compound 186, 3-{4-[4-(butyloxy)phenylmethyloxy]-3-(1H-indol-5-yl)phenyl}propionic acid]",≥ 50,≥ 50,≥ 50,suppressed footpad edema,suppressed the footpad edema
"O=C(O)CCc1ccc(OCCCc2ccccc2)c(-c2ccc3[nH]ccc3c2)c1 [Compound 220, 3-[3-(1H-indol-5-yl)-4-(3-phenylpropyloxy)phenyl]propionic acid]",≥ 50,≥ 50,≥ 50,suppressed footpad edema,suppressed the footpad edema
"CN(CCOc1ccc(CCC(=O)O)cc1-c1ccc2[nH]ccc2c1)c1ccccc1 [Compound 229, 3-{3-(1H-indol-5-yl)-4-[2-(N-phenyl-N-methylamino)-ethyloxy]phenyl}propionic acid]",≥ 50,≥ 50,≥ 50,suppressed footpad edema,suppressed the footpad edema
"O=C(O)CCc1ccc(OCC2CCCCC2)c(-c2ccc3[nH]ccc3c2)c1 [Compound 231, 3-[4-cyclohexylmethyloxy-3-(1H-indol-5-yl)phenyl]propionic acid]",≥ 50,≥ 50,≥ 50,suppressed footpad edema,suppressed the footpad edema
"Cn1ccc2cc(-c3cc(CCC(=O)O)ccc3OCC3CCCCC3)ccc21 [Compound 233, 3-[4-cyclohexylmethyloxy-3-(1-methyl-1H-indol-5-yl)phenyl]propionic acid]",≥ 50,≥ 50,≥ 50,suppressed footpad edema,suppressed the footpad edema
"CCn1ccc2cc(-c3cc(CCC(=O)O)ccc3OCC3CCCC3)ccc21 [Compound 236, 3-[4-cyclopentylmethyloxy-3-(1-ethyl-1H-indol-5-yl)phenyl]propionic acid]",≥ 50,≥ 50,≥ 50,suppressed footpad edema,suppressed the footpad edema
"O=C(O)CCc1ccc(OCC2CCCC2)c(-c2ccc3c(ccn3CCO)c2)c1 [Compound 243, 3-{4-cyclopentylmethyloxy-3-[1-(2-hydroxyethyl)-1H-indol-5-yl]phenyl}propionic acid]",≥ 50,≥ 50,≥ 50,suppressed footpad edema,suppressed the footpad edema
